Measurements as given in the supplement of paper PMC10307832.

Tests used:
Assay in all cases: relative viability (nuclei count vs DMSO), 5 days (fraction); higher = more cells survive
[1] = compound: C1COCCN1C2=NC(=NC3=C2OC4=C3C=CC=N4)C5=CC(=CC=C5)NC(=O)C6=CN=C(C=C6)N + COc1cc2c(Oc3ccc(NC(=O)C4(C(=O)Nc5ccc(F)cc5)CC4)cc3F)ccnc2cc1OCCCN1CCOCC1 [Foretinib] (partner 0.25 µM)
Method in brief: (§1)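 Relative viability equals treated-well nuclei counts divided by vehicle-well nuclei counts. Counts came from 4× images of lung cancer cell lines grown in 1536-well plates for 5 days after pin-tool dosing on the day after seeding. Dosing used one drug alone or a fixed anchor-drug dose plus five library-drug doses (not always all listed) in √10 steps, and values are medians of duplicate plates.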

[2] = compound: CN1CCC(CNc2ccc3ncc(-c4cccc(OC(F)(F)F)c4)n3n2)CC1 [SGI-1776] + Cc1nc(NC(=O)N2CCC[C@H]2C(N)=O)sc1-c1ccnc(C(C)(C)C(F)(F)F)c1 [Alpelisib] (partner 2 µM)
Method in brief: as §1

[3] = compound: Nc1ccccc1NC(=O)c1ccc(CNC(=O)OCc2cccnc2)cc1 [Entinostat] + CC(=O)Nc1cccc(-n2c(=O)n(C3CC3)c(=O)c3c(Nc4ccc(I)cc4F)n(C)c(=O)c(C)c32)c1 [Trametinib] (partner 0.02 µM)
Method in brief: as §1

[4] = compound: CN1CCC(CNc2ccc3ncc(-c4cccc(OC(F)(F)F)c4)n3n2)CC1 [SGI-1776] + CC1(C)CCC(c2ccc(Cl)cc2)=C(CN2CCN(c3ccc(C(=O)NS(=O)(=O)c4ccc(N[C@H](CCN5CCOCC5)CSc5ccccc5)c(S(=O)(=O)C(F)(F)F)c4)cc3)CC2)C1 [Navitoclax] (partner 0.5 µM)
Method in brief: as §1

Cell Line	relative viability ([1]; first compound 0.02 µM)	relative viability ([1]; first compound 0.06325 µM)	relative viability ([1]; first compound 0.2 µM)	relative viability ([1]; first compound 0.6325 µM)	relative viability ([1]; first compound 2 µM)	relative viability ([2]; first compound 0.08 µM)	relative viability ([2]; first compound 0.8 µM)	relative viability ([2]; first compound 2.53 µM)	relative viability ([2]; first compound 8 µM)	relative viability ([3]; first compound 0.02 µM)	relative viability ([3]; first compound 0.06325 µM)	relative viability ([3]; first compound 0.2 µM)	relative viability ([3]; first compound 0.6325 µM)	relative viability ([3]; first compound 2 µM)	relative viability ([4]; first compound 0.08 µM)	relative viability ([4]; first compound 0.8 µM)	relative viability ([4]; first compound 2.53 µM)	relative viability ([4]; first compound 8 µM)
NCI-H1563	0.833	0.911	0.862	0.856	0.823	0.928	1	0.874	0.695									
NCI-H1623	0.791	0.801	0.954	0.822	0.648													
NCI-H1648										0.507	0.682	0.436	0.653	0.472				
NCI-H1650	1.12	1.15	0.974	1.22	0.76					0.594	0.585	0.507	0.372	0.376	1.22	1.21	0.981	0.762
NCI-H1703	0.284	0.413	0.371	0.305	0.285	0.367	0.312	0.299	0.165						1.22	0.914	0.457	0.178
NCI-H1792						0.765	0.663	0.696	0.552	0.479	0.431	0.366	0.442	0.155	0.614	0.72	0.654	0.479
NCI-H2342	0.981	1.24	1.02	1.01	0.88					0.855	0.659	0.713	0.605	0.673				
SW 900	0.944	0.93	0.751	1.5	0.735					0.793	0.752	0.614	0.766	0.347				
